Laboratory results published in patent US8598184B2, “Protein kinase inhibitors” (Tiger Pharmatech, priority 2008, dated 2013).
Where “and” joins values, the source holds several entries; their conditions need not be identical. Identical values can stand only once. Like-named read-outs stand apart in the source and are kept apart here.

Legend:
[1] = system: U87MG glioblastoma tumor xenograft; details: for tumor growth inhibition: Day 12, vs vehicle-treated controls
Experimental: The U87MG glioblastoma cell line (obtained from Institute of Biochemistry and Cell Biology, Shanghai Institutes for Biological Sciences) expresses the c-Met receptor and responds to […] (HGF). […] The study utilized a tumor growth inhibition (TGI) assay to test per os (p.o.) compound monotherapy in groups of eight nude mice. A control group was treated with a 30:70 (PEG 400:acidified H2O) vehicle. All treatments began on Day 1 (D1) in mice bearing established subcutaneous (s.c.) U87MG tumors.
Female athymic nude mice (BALB/cA, Shanghai Laboratories Animal Center, Shanghai, China) were 7-8 weeks old with a body weight range of 19-21 g at the beginning of the study. Food and water were available ad libitum throughout the study. Mice were housed in SPF (Specific Pathogen Free) area of Medicilon/MPI animal facility. Environmental control for the animal room was set to maintain a temperature of 18-25° C., humidity of 30-70%, and a 12-hour light/12-hour dark cycle. Animals had previously been acclimated to study procedures prior to initial dose administration. Animals to be used on test were selected based on overall health and acclimation to caging.
U-87 MG human glioblastoma cells were purchased from Institute of Biochemistry and Cell Biology, Shanghai Institutes for Biological Sciences. The cells were maintained in vitro Eagle's Minimum Essential Medium supplemented with 10% heat inactivated fetal calf serum. Cells were cultured at 37° C. in an atmosphere of 5% CO2 in air and routinely sub-cultured twice weekly by trypsin-EDTA treatment. Cells in an exponential growth phase were harvested and counted for tumor inoculation. Each test mouse was subcutaneously inoculated with 1×10^7 U87-MG tumor cells in 0.1 ml medium at the right flank of the mouse for tumor model development. During the experiment, the implanted tumors were measured by external caliper every other day in a blind fashion. Nine days later, on Day 1 of the study, mice with well-established tumors (about 150 mm^3) were randomly assigned into 4 groups (n=8 mice/group). Tumor volume was calculated using the formula: Tumor Volume=w^2×l/2 where w=width and l=length in mm of the tumor. Tumor weight may be estimated with the assumption that 1 mg is equivalent to 1 mm^3 of tumor volume.
In all groups, the dosing volume of 0.2 mL/20 g mouse was scaled to the body weight of each animal
The MTV (n) is defined as the median tumor volume (MTV) for the number of animals, n, remaining in the study on that day. The Median Tumor Growth Volume=Median Tumor Volume−Median Tumor Volumeinitial.
Tumor growth was plotted as the median tumor volume, versus time, for each group in the study. The differences in the tumor size between the treatment groups and the vehicle group are analyzed for significance using the unpaired two-tailed Student's t-test. P<0.05 is considered to be statistically significant.

[2] = In vivo pharmacokinetics study in rats, intravenous and oral administration; design: species or system male Sprague Dawley rats
Experimental: The compounds of the present invention were formulated as a solution in a 30:70 (PEG 400:acidified H2O) vehicle. This solution was administered orally (p.o.) at 10 mg/kg and intravenously (i.v.) at 2.5 mg/kg to two distinct groups (n=3) of male Sprague Dawley rats (body weight of 220-250 g). The animals used in the oral dosing group were fasted for 12 hrs before the drug administration. The blood samples were collected via retro-orbital puncture at 0 hour (pre-dose), 0.083, 0.25, 0.5, 1, 2, 4, 6, 8, and 24 hours post-dose. The blood plasma was isolated and HPLC was performed to determine the concentration of the test compounds in blood plasma. Standard set of pharmacokinetic parameters including Area Under the Curves (AUC's), elimination half-lives and bioavailabilities etc. were calculated using FDA certified pharmacokinetic program WinNonlin Professional v5.2 (Pharsight, USA).
The bioavailability was calculated as F (%)=(Doseiv×AUCoral(0-∞))/(Doseoral×AUCiv(0-∞))100%. The plasma concentration-time curve of example 5 in male rats following intravenous and oral administration was shown in FIG. 1. Selected pharmacokinetics parameters of example 5 in male rats following intravenous and oral administration were listed in Table 2.

[3] = male rats, IV 2.5 mg/kg, individual animals R 1-R 3
[4] = male rats, PO 10 mg/kg, fasted, individual animals R 4-R 6
[5] = male, Sprague Dawley, rat, plasma, iv, 2.5 mg/kg, IV 2.5 mg/kg, individual animals R 1-R 3
[6] = male, Sprague Dawley, rat, plasma, iv, 2.5 mg/kg, IV 2.5 mg/kg, mean (n=3)
[7] = male, Sprague Dawley, rat, plasma, po, 10 mg/kg, PO 10 mg/kg, fasted, individual animals R 4-R 6
[8] = male, Sprague Dawley, rat, plasma, po, 10 mg/kg, PO 10 mg/kg, fasted, mean (n=3)

With OCCn1cc(-c2ncc3nnn(Cc4ccc5ncccc5c4)c3n2)cn1 [Example 5, 2-(4-(3-(Quinolin-6-ylmethyl)-3H-[1,2,3]triazolo[4,5-d]pyrimidin-5-yl)-1H-pyrazol-1-yl)ethanol] as the compound, how does the tumor growth inhibition ([1]; 10 mg/kg p.o. once a day (q.d.)) read?
The tumor growth inhibition was 58%.

What about the tumor growth inhibition ([1]; 30 mg/kg p.o. twice a day (b.i.d.)) of the same compound?
Its tumor growth inhibition is 70%.

What about the “significance of tumor growth inhibition” value ([1]; 40 mg/kg (q.d.) and 30 mg/kg (b.i.d.), from Day 4, p<0.05) of the same compound?
The value was “statistically significant tumor growth inhibition”.

What about the tumor growth inhibition ([1]; 40 mg/kg p.o. once a day (q.d.)) of the same compound?
The tumor growth inhibition was 66%.

And the “significance of tumor growth inhibition” value ([1]; all doses (10, 40 mg/kg q.d., 30 mg/kg b.i.d.), from Day 6, p<0.05)?
Its value is “statistically significant tumor growth inhibition”.

What about the Tmax ([2]; Sprague Dawley, rat, plasma, male rats, IV 2.5 mg/kg, individual animals R 1-R 3) of the same compound?
The Tmax was 0.08 h.

And the Tmax ([2]; Sprague Dawley, rat, plasma, male rats, PO 10 mg/kg, fasted, individual animals R 4-R 6)?
Its Tmax is 2 h.

And the “AUC(0-t)” value [2, 3]?
Its value is 5472.46 ng·h/mL and 3451.75 ng·h/mL and 7274.77 ng·h/mL.

What about the “AUC(0-∞)” value [2, 3] of the same compound?
The value was 3741.58 ng·h/mL and 7310.08 ng·h/mL.

What about the Cmax [2, 3] of the same compound?
Its Cmax is 2417.88 ng/mL and 3019.57 ng/mL.

And the t1/2 [2, 3]?
The t1/2 was 2.59 h and 3.23 h.

What about the “F % (bioavailability)” value ([2]; male rats, PO 10 mg/kg vs IV 2.5 mg/kg, individual animals R 4-R 6) of the same compound?
Its value is 70.36% and 72.63%.

What about the “AUC(0-t)” value [2, 4] of the same compound?
Its value is 15454.20 ng·h/mL and 15954.84 ng·h/mL.

What about the “AUC(0-∞)” value [2, 4] of the same compound?
The value was 15509.49 ng·h/mL and 16010.05 ng·h/mL.

And the Cmax [2, 4]?
Its Cmax is 1505.63 ng/mL and 2299.65 ng/mL.

And the t1/2 [2, 4]?
Its t1/2 is 2.82 h and 2.98 h.

And the AUC(0-inf) [2, 5]?
The AUC(0-inf) was 5480 ng·h/mL.

What about the half-life [2, 5] of the same compound?
The half-life was 2.62 h.

What about the Cmax ([2]; male, Sprague Dawley, rat, plasma, iv, 2.5 mg/kg, IV 2.5 mg/kg, individual animals R 1-R 3, read-out: Cmax) of the same compound?
Its Cmax is 2700 ng/mL.

What about the AUC(0-inf) [2, 6] of the same compound?
The AUC(0-inf) was 5510 ng·h/mL.

What about the half-life [2, 6] of the same compound?
Its half-life is 2.81 h.

And the AUC(0-t) ([2]; male, Sprague Dawley, rat, plasma, iv, 2.5 mg/kg, IV 2.5 mg/kg, mean (n=3), read-out: AUC(0-t))?
The AUC(0-t) was 5400 ng·h/mL.

What about the Cmax ([2]; male, Sprague Dawley, rat, plasma, iv, 2.5 mg/kg, IV 2.5 mg/kg, mean (n=3), read-out: Cmax) of the same compound?
The Cmax was 2710 ng/mL.

What about the bioavailability ([2]; male, Sprague Dawley, rat, plasma, po, 10 mg/kg, PO 10 mg/kg vs IV 2.5 mg/kg, individual animals R 4-R 6, read-out: F % (bioavailability)) of the same compound?
The bioavailability was 79.4%.

And the bioavailability ([2]; male, Sprague Dawley, rat, plasma, po, 10 mg/kg, PO 10 mg/kg vs IV 2.5 mg/kg, mean (n=3), read-out: F % (bioavailability))?
Its bioavailability is 74.1%.

What about the AUC(0-inf) [2, 7] of the same compound?
The AUC(0-inf) was 17500 ng·h/mL.

And the half-life [2, 7]?
The half-life was 2.88 h.

And the AUC(0-t) ([2]; male, Sprague Dawley, rat, plasma, po, 10 mg/kg, PO 10 mg/kg, fasted, individual animals R 4-R 6, read-out: AUC(0-t))?
The AUC(0-t) was 17400 ng·h/mL.

And the Cmax ([2]; male, Sprague Dawley, rat, plasma, po, 10 mg/kg, PO 10 mg/kg, fasted, individual animals R 4-R 6, read-out: Cmax)?
Its Cmax is 2540 ng/mL.

And the AUC(0-inf) [2, 8]?
Its AUC(0-inf) is 16300 ng·h/mL.

And the half-life [2, 8]?
Its half-life is 2.89 h.

What about the AUC(0-t) ([2]; male, Sprague Dawley, rat, plasma, po, 10 mg/kg, PO 10 mg/kg, fasted, mean (n=3), read-out: AUC(0-t)) of the same compound?
Its AUC(0-t) is 16300 ng·h/mL.

What about the Cmax ([2]; male, Sprague Dawley, rat, plasma, po, 10 mg/kg, PO 10 mg/kg, fasted, mean (n=3), read-out: Cmax) of the same compound?
The Cmax was 2110 ng/mL.
